In assay [1] the target is Fibroblast growth factor receptor 2 (Homo sapiens) (UniProt P21802). The assay can be described thus: Selectivity interaction (KinomeScan (DiscoverX)) EUB0000607a FGFR2. The settings on record: at 10 µM.
Assay [2] deals with T1, NUAK family SNF1-like kinase 1 (Homo sapiens) (UniProt O60285).
T1 sequence (whole entry): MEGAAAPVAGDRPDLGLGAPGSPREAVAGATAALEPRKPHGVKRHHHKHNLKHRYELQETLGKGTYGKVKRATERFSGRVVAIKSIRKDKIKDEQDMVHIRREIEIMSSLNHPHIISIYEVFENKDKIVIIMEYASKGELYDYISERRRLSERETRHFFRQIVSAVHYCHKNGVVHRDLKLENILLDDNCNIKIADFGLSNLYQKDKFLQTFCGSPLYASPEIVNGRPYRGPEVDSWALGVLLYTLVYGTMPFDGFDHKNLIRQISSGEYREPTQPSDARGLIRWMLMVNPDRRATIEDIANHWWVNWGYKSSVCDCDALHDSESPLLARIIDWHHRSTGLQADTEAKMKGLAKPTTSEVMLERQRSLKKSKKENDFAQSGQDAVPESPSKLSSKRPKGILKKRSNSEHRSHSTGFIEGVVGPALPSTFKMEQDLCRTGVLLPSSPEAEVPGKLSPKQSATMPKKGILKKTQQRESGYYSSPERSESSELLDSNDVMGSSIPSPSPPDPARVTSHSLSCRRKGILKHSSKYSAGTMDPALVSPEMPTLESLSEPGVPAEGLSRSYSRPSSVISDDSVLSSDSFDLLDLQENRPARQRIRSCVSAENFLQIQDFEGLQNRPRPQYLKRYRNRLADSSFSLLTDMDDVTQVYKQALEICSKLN
Put plainly: Selectivity interaction (Ambit KINOMEscan and KiNATiv profiling in Jurkat cells) EUB0000090b NUAK1. The class given is cell-based. Particulars: at 1 µM.

Assay [3] has as its target T2, Serine/threonine-protein kinase TAO2 (Homo sapiens) (UniProt Q9UL54).
T2 sequence (whole entry): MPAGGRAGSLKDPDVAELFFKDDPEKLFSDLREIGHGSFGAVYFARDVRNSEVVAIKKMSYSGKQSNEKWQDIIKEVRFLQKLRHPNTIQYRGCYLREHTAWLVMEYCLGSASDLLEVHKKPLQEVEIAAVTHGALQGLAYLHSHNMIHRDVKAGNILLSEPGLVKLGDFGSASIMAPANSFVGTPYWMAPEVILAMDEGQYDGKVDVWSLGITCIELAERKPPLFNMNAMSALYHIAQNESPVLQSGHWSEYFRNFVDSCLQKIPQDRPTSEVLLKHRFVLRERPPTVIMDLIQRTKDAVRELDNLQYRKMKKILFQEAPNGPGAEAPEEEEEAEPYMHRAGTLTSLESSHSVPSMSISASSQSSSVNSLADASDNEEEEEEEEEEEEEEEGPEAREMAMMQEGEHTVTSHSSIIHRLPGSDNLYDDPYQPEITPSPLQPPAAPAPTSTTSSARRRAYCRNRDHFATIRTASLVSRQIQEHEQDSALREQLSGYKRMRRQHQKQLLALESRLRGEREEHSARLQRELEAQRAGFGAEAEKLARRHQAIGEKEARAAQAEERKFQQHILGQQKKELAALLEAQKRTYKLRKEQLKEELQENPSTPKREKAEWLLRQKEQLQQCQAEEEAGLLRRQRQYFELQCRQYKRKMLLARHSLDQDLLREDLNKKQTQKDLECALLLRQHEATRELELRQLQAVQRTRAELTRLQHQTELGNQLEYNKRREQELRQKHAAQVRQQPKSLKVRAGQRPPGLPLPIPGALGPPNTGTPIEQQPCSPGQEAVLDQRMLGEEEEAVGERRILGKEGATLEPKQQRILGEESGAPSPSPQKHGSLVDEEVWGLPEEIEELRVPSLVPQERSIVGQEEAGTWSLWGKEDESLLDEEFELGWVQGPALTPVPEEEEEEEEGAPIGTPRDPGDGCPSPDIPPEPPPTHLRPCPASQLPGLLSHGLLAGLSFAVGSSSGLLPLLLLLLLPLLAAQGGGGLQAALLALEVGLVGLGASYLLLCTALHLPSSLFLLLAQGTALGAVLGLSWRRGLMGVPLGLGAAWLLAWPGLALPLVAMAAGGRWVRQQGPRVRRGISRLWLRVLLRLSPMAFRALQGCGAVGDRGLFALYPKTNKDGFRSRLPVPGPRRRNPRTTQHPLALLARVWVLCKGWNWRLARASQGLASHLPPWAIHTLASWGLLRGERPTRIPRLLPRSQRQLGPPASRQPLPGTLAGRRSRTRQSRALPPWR
Put plainly: Selectivity interaction (KinomeScan (DiscoverX)) EUB0000092b TAOK2. The settings on record: at 10 µM.

Assay [4] concerns the target T3, Ephrin type-B receptor 6 (Homo sapiens) (UniProt O15197).
T3 sequence (whole entry): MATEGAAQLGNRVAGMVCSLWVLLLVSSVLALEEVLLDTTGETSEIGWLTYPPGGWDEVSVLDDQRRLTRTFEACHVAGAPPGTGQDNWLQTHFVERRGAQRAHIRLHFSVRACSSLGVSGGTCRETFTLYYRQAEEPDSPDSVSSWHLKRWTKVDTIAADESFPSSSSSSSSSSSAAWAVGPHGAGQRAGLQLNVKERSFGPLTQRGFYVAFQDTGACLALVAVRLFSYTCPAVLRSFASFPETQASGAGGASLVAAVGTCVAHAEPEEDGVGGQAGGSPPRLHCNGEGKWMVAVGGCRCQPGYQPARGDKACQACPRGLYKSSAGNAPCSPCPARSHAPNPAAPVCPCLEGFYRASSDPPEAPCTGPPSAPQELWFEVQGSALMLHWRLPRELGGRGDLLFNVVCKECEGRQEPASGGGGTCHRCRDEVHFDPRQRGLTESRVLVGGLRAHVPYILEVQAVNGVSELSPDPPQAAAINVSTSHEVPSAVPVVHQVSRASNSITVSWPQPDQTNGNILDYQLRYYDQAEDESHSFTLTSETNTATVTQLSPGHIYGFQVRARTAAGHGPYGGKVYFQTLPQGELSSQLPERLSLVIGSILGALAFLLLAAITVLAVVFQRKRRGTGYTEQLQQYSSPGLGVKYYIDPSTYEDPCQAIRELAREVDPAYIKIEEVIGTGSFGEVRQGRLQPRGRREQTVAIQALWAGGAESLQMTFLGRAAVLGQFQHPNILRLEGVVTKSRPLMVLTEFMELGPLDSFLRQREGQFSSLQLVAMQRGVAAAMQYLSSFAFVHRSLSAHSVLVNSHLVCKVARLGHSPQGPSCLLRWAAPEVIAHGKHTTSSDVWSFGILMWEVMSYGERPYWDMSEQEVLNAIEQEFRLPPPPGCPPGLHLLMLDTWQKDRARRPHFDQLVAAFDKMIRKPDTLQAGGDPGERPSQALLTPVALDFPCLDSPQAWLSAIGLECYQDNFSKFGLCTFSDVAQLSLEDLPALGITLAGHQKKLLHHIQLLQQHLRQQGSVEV
The assay can be described thus: Selectivity interaction (KinomeScan (DiscoverX)) EUB0001079a EPHB6. The settings on record: at 1 µM.

Structures are written as SMILES.

Experimental findings from ChEMBL document CHEMBL5465560, “Selectivity Literature for EUbOPEN Chemogenomic Library” (2024) are described below.

Chain of Fibroblast growth factor receptor 2 (Homo sapiens) (P21802 22-821 limits assumed): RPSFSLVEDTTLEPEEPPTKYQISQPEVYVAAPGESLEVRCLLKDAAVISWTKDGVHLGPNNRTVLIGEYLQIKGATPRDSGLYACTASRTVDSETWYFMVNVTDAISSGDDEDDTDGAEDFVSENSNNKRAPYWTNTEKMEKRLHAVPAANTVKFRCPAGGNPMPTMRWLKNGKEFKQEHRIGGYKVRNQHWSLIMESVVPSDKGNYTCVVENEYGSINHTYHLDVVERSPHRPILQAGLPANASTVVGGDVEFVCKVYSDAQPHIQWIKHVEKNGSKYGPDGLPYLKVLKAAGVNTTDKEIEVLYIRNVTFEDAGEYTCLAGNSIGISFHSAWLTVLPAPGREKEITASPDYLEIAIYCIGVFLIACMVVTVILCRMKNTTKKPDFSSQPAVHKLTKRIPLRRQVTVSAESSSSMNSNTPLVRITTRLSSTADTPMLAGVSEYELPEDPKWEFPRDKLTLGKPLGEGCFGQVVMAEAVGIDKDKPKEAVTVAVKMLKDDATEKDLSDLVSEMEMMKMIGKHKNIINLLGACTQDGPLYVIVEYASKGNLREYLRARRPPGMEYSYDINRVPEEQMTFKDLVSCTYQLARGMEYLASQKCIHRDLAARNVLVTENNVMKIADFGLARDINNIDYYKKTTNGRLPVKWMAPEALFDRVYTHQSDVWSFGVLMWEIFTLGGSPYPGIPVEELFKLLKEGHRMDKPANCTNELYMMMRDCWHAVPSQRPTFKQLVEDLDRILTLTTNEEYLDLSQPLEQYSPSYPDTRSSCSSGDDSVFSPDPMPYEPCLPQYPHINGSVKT

Turning to `CNC(=O)Nc1ccc(-c2nc(N3CC4CCC(C3)O4)c3cnn(C4CCC5(CC4)OCCO5)c3n2)cc1`, the % of control in assay [1] came to 92%.

Consider `CN(C)C/C=C/C(=O)Nc1ccc(C(=O)N2CCCC(Nc3ncc(Cl)c(-c4c[nH]c5ccccc45)n3)C2)cc1` (centres undefined), for which the % of control in assay [2] was found to be 84%.

In the case of `CCC(=O)N1CCN(c2ccc(-n3c(=O)ccc4cnc5ccc(-c6cnc7ccccc7c6)cc5c43)cc2C(F)(F)F)CC1`, the % of control in assay [3] is 84%.

For the molecule `Nc1cnc(N2CCc3cc(S(=O)(=O)Nc4c(F)cc(Cl)cc4F)cc(N4CCCC4=O)c32)nc1` [TP-020n], the % of control in assay [4] is 100%.
